Results as given in patent publication US9833433B1, “Compositions, methods of use, and methods of treatment” (priority 2013, dated 2017).

Key:
COX-2 [1] = test: Hippocampal COX-2 expression in mice (immunoblot); type: in vivo
COX-1 = test: Hippocampal COX-1 expression in mice (immunoblot); type: in vivo; conditions: Δ^9-THC 10 mg/kg, detected 4 hrs after injection
COX-2 [2] = test: COX-2 expression in neuronal and astroglial cell-enriched cultures; type: cell-based; conditions: assayed 12 hr after treatment
Procedure: Relative pure hippocampal neurons (astroglial cells<2%), mixed neurons and astroglial cells (astroglial cells ˜10%), and astroglial cell-enriched (astroglial cells>95%), and NG108-15 cell cultures were made as described previously (Sang et al, 2005; Zhang and Chen, 2008).
Primary hippocampal neurons (astroglial cells<2%), mixed neurons and astroglial cells (astroglial cells ˜10%), astroglial cell-enriched (astroglial cells>95%) and NG108-15 cells were cultured as described previously (Sang et al, 2005; Zhang and Chen, 2008). The extent of neurons and astroglial cells in culture were controlled by different treatments, which was estimated by using immunostaining with NeuN, a neuronal marker, glial fibrillary acidic protein (GFAP), an astrocytic marker, and OX-42, a microglial marker, in conjunction with DAPI staining.

COX-2 mRNA = COX-2 mRNA by qPCR in NG108-15 cells; type: cell-based; conditions: culture transfected with the control vector; 6 hrs after Δ^9-THC
[3] = test system: NF-κB p65 binding to ptgs2 promoter; type: cell-based; conditions: mixed culture; Δ^9-THC 30 μM
[4] = test system: Akt, ERK, p38MAPK and NF-κB; test: Phosphorylation of Akt, ERK, p38MAPK and NF-κB in hippocampal tissue; type: in vivo, mice; conditions: Δ^9-THC 10 mg/kg
hippocampal LTD = test: Hippocampal LTD induced by low-frequency stimulation at CA3-CA1 synapses; type: in vivo; conditions: single injection 10 mg/kg i.p.; LTD recorded 24 hrs later; WT mice P12 to P17
Text: Field EPSP (fEPSP) recordings both at CA3-CA1 and perforant path synapses in response to stimuli at a frequency of 0.05 Hz were made using an Axoclamp-2B patch-clamp amplifier (Molecular Devices, CA) in bridge mode. Recording pipettes were pulled from borosilicate glass with a micropipette puller (Sutter Instrument), filled with artificial ACSF (2-4 MΩ). Hippocampal LTP at CA3-CA1 and perforant path synapses was induced by a theta-burst stimulation (TBS), consisting of a series of 10 bursts of 5 stimuli at 100 Hz (200 ms interburst interval, which was repeated three time (Fan et al., 2010; Hoffman et al., 2007; Chen et al., 2012). The input-output function was tested before recording of LTP, and the baseline stimulation strength was set to provide fEPSP with an amplitude of ˜30% from the subthreshold maximum derived from the input-output function. Hippocampal LTD was induced by low-frequency stimulation (900 stimuli at 1 Hz for 15 min) at CA3-CA1 synapses.

catalepsy = test: Bar test (catalepsy); type: in vivo, mice; conditions: Δ^9-THC 10 mg/kg; 30, 60, and 90 min after injection
Procedure: (§1) The classic Morris water maze and fear conditioning tests were performed to determine spatial and fear memory as described previously (Chen et al., 2012). The ‘open field’ test was conducted to detect the locomotor activity and the bar test was used to detect catalepsy (Egashira et al., 2007).
The cataleptic effect of Δ^9-THC was detected using the bar test as described previously with modification (Egashira et al., 2007; Pertwee and Wickens, 1991). Briefly, the front paws of each mouse were placed on an elevated rod (0.5 cm in diameter and 3.5 cm from the bottom of the test box) and the duration of time that the mouse kept motionless was determined. The test was conducted 30, 60, and 90 min after Δ^9-THC injection. Celebrex was injected 30 min prior to Δ^9-THC injection.

locomotor activity = test: Open field test (locomotor activity); type: in vivo, mice; conditions: Δ^9-THC 10 mg/kg; 30 min open field
Procedure: as §1
The ‘open field’ test was conducted using an automatic-recording open-field working station (MED Associates, Georgia, Vt.). During the test, mice were individually released into the center of the box immediately after injections of Δ^9-THC, NS398, Δ^9-THC+NS398, Celebrex or Celebrex+Δ^9-THC. Celebrex and NS398 were injected 30 min prior to Δ^9-THC injection and allowed to explore the field for 30 min and their behaviors were recorded by a photobeam-scanning system and a video camera simultaneously. Data were analyzed automatically by the computer-sampling system.

PSD-95 = test: Hippocampal PSD-95 expression (immunoblot); type: in vivo, mice; conditions: Δ^9-THC for 7 days
Procedure: (§2) Western blot assay was conducted using specific antibodies (Table S1) to determine expressions of COX-2, glutamate receptor subunits, PSD-95, G-protein subunits, phosphoproteins, BACE1 and neprilysin in hippocampal tissue and/or in cultured cells as described previously (Chen et al., 2012). Surface biotinylation assays were performed to determine surface expression of glutamate receptor subunits in hippocampal slices as described previously (Fan et al., 2010).

synaptophysin (Syn) = test: Hippocampal synaptophysin expression (immunoblot); type: in vivo, mice; conditions: Δ^9-THC for 7 days
[5] = test system: synaptic release of glutamate; test: Miniature spontaneous EPSCs (mEPSCs) in cultured hippocampal neurons; type: cell-based; conditions: Δ^9-THC 3 μM; recorded 24 hrs after treatment
neprilysin (NEP) = test: Neprilysin expression in 5XFAD APP transgenic mice (immunoblot); type: in vivo; conditions: TG mice
Procedure: as §2

CREB = test: Phosphorylation of hippocampal CREB; conditions: WT mice; Δ^9-THC for 7 days
NF-κB = NF-κB phosphorylation in NG108-15 cells
Akt, ERK, and p38MAPK = test: Phosphorylation of Akt, ERK and p38MAPK in NG108-15 cells; conditions: Δ^9-THC 30 μM
EAAT1, EAAT2, and EAAT3 = test: Hippocampal expression of glutamate transporters (immunoblot); conditions: Δ^9-THC 10 mg/kg once a day for 7 days

CCCCCc1cc(O)c2c(c1)OC(C)(C)[C@@H]1CCC(C)=C[C@@H]21 [Δ^9-THC, Δ^9-tetrahydrocannabinol]
hippocampal COX-2 expression after cannabinoid injection (COX-2 [1]; single i.p. injection, CP55,940 10 mg/kg, detected 4 hrs): dose- and time-dependent induction of COX-2 in the brain | hippocampal COX-2 expression after repeated injections (COX-2 [1]; Δ^9-THC 10 mg/kg i.p. once daily for 7 consecutive days, analyzed 24 hrs after last injection): steadily elevated | hippocampal COX-1 expression (COX-1): unaffected | COX-2 expression in neuronal and astroglial cell-enriched cultures (COX-2 [2]): CB1R-dependent increase in COX-2 expression both in neuronal and astroglial cell-enriched cultures | COX-2 mRNA expression in NG108-15 cells (COX-2 mRNA): increased expression of COX-2 mRNA | binding of NF-κB p65 to ptgs2 promoter positions −419 to −428 bp [3]: enhanced | phosphorylation of Akt, ERK, p38MAPK and NF-κB in the hippocampus [4]: confirmed | hippocampal LTD after single exposure (hippocampal LTD): impaired | cataleptic effect (catalepsy): cataleptic and locomotor depressive effects | locomotor depressive effect (locomotor activity): cataleptic and locomotor depressive effects | PSD-95 expression (PSD-95): reduced expression of PSD-95 | synaptophysin expression (synaptophysin (Syn)): did not alter expression of synaptophysin (Syn) | synaptic release of glutamate (mEPSCs) [5]: enhanced synaptic release of glutamate | expression of neprilysin (NEP) (neprilysin (NEP)): increases expression of neprilysin (NEP) | phosphorylation of hippocampal CREB (CREB): reduced expression of glutamate receptor subunits and phosphorylation of CREB | NF-κB phosphorylation (NF-κB): induced NF-κB phosphorylation | phosphorylation of Akt, ERK, and p38MAPK (Akt, ERK, and p38MAPK): induced phosphorylation of these signaling molecules | expression of glutamate transporters (EAAT1, EAAT2, and EAAT3): down-regulated
